Laboratory results from ChEMBL document CHEMBL1201862, “PubChem BioAssay data set” (2004).
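Five compound concentrations were applied to cells in 96-well plates for 48 hours; endpoints were derived by simple linear interpolation of the resulting dose-response curve. GI50 is the concentration that inhibits growth by half.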 Active and inactive are the calls of the source. Rule as the data show it: active = GI50 up to about 1.1 µM and inactive = higher.

Experiments:
Assay in all cases: growth of human tumour cells (NCI), 48 h
786-0 = system: 786-0
A498 = system: A498
A549 = system: A549
ACHN = system: ACHN
BT-549 = system: BT-549
CAKI-1 = system: CAKI-1
CCRF-CEM = system: CCRF-CEM
COLO 205 = system: COLO 205
DU-145 = system: DU-145
EKVX = system: EKVX
HCC 2998 = system: HCC 2998
HCT-116 = system: HCT-116
HCT-15 = system: HCT-15
HL-60 = system: HL-60
HOP-62 = system: HOP-62
HOP-92 = system: HOP-92
HT-29 = system: HT-29
Hs-578T = system: Hs-578T
IGROV-1 = system: IGROV-1
K562 = system: K562
KM12 = system: KM12
LOX IMVI = system: LOX IMVI
M14 = system: M14
MCF7 = system: MCF7
MDA-MB-231 = system: MDA-MB-231
MDA-MB-435 = system: MDA-MB-435
MDA-N = system: MDA-N
MOLT-4 = system: MOLT-4
NCI-H226 = system: NCI-H226
NCI-H23 = system: NCI-H23
NCI-H460 = system: NCI-H460
NCI-H522 = system: NCI-H522
NCI/ADR-RES = system: NCI/ADR-RES
OVCAR-3 = system: OVCAR-3
OVCAR-4 = system: OVCAR-4
OVCAR-5 = system: OVCAR-5
OVCAR-8 = system: OVCAR-8
PC-3 = system: PC-3
RPMI-8226 = system: RPMI-8226
RXF 393 = system: RXF 393
SF-268 = system: SF-268
SF-295 = system: SF-295
SF-539 = system: SF-539
SK-MEL-28 = system: SK-MEL-28
SK-MEL-2 = system: SK-MEL-2
SK-MEL-5 = system: SK-MEL-5
SK-OV-3 = system: SK-OV-3
SN12C = system: SN12C
SNB-19 = system: SNB-19
SNB-75 = system: SNB-75
SW-620 = system: SW-620
T47D = system: T47D
TK-10 = system: TK-10
U-251 = system: U-251
UACC-257 = system: UACC-257
UACC-62 = system: UACC-62
UO-31 = system: UO-31
Malme-3M = system: Malme-3M
SR = system: SR

For `O=C(OCC12CC3CC(CC(C3)C1)C2)c1ccc(NCc2cc(O)ccc2O)cc1`, the GI50 (786-0) was 0.708 µM (active), the GI50 (A498) was 3.72 µM (inactive) and the GI50 (A549) was 2.67 µM (inactive). The GI50 (ACHN) was 2.01 µM (inactive), the GI50 (BT-549) was 0.331 µM (active) and the GI50 (CAKI-1) was 0.466 µM (active). For the same molecule, the GI50 (CCRF-CEM) was 0.0547 µM (active), the GI50 (COLO 205) was 0.681 µM (active) and the GI50 (DU-145) was 3.54 µM (inactive). The GI50 (EKVX) was 2.7 µM (inactive), the GI50 (HCC 2998) was 1.79 µM (inactive) and the GI50 (HCT-116) was 2.26 µM (inactive). The GI50 (HCT-15) was 1.32 µM, the GI50 (HL-60) was 0.145 µM (active) and the GI50 (HOP-62) was 4.62 µM (inactive). The GI50 (HOP-92) was 3.66 µM (inactive), the GI50 (HT-29) was 1.47 µM (inactive) and the GI50 (Hs-578T) was 2.14 µM (inactive). The GI50 (IGROV-1) was 0.131 µM (active), the GI50 (K562) was 0.431 µM (active) and the GI50 (KM12) was 1.24 µM (inactive). For the same molecule, the GI50 (LOX IMVI) was 1.72 µM (inactive), the GI50 (M14) was 1.96 µM (inactive) and the GI50 (MCF7) was 1.08 µM (active). The GI50 (MDA-MB-231) was 4.06 µM (inactive), the GI50 (MDA-MB-435) was 1.99 µM (inactive) and the GI50 (MDA-N) was 2.81 µM (inactive). The GI50 (MOLT-4) was 0.115 µM (active), the GI50 (NCI-H226) was 1.77 µM (inactive) and the GI50 (NCI-H23) was 1.47 µM (inactive). The GI50 (NCI-H460) was 2.57 µM (inactive), the GI50 (NCI-H522) was 0.0662 µM (active) and the GI50 (NCI/ADR-RES) was 1.47 µM (inactive). For the same molecule, the GI50 (OVCAR-3) was 0.305 µM (active), the GI50 (OVCAR-4) was 1.05 µM (active) and the GI50 (OVCAR-5) was 2.1 µM (inactive). For the same molecule, the GI50 (OVCAR-8) was 1.81 µM (inactive), the GI50 (PC-3) was 0.713 µM (active) and the GI50 (RPMI-8226) was 0.199 µM (active). The GI50 (RXF 393) was 1.29 µM (inactive), the GI50 (SF-268) was 3.27 µM (inactive) and the GI50 (SF-295) was 3.76 µM (inactive). The GI50 (SF-539) was 0.544 µM (active), the GI50 (SK-MEL-28) was 1.54 µM (inactive) and the GI50 (SK-MEL-2) was 2.5 µM (inactive). The GI50 (SK-MEL-5) was 1.32 µM (inactive), the GI50 (SK-OV-3) was 6.08 µM (inactive) and the GI50 (SN12C) was 2.57 µM (inactive). For the same molecule, the GI50 (SNB-19) was 4.33 µM (inactive), the GI50 (SNB-75) was 1.81 µM (inactive) and the GI50 (SW-620) was 3.02 µM (inactive). The GI50 (T47D) was 0.473 µM (active), the GI50 (TK-10) was 1.99 µM (inactive) and the GI50 (U-251) was 1.02 µM (active). The GI50 (UACC-257) was 1.64 µM (inactive), the GI50 (UACC-62) was 1.6 µM (inactive) and the GI50 (UO-31) was 0.671 µM (active).
`CN(C)c1ccc(/C=C/c2ccnc3ccc4ccccc4c23)cc1` was tested, and the GI50 (786-0) was 39.5 µM (inactive), the GI50 (A498) was 24.8 µM (inactive) and the GI50 (A549) was 35.7 µM (inactive). The GI50 (ACHN) was 22.8 µM (inactive), the GI50 (BT-549) was 37.5 µM (inactive) and the GI50 (CAKI-1) was 38.4 µM (inactive). For the same molecule, the GI50 (CCRF-CEM) was > 100 µM (inactive), the GI50 (COLO 205) was 53.1 µM (inactive) and the GI50 (DU-145) was 44.1 µM (inactive). The GI50 (HCT-116) was 36.5 µM (inactive), the GI50 (HCT-15) was 45.9 µM and the GI50 (HL-60) was > 100 µM (inactive). The GI50 (HOP-62) was 33.4 µM (inactive), the GI50 (HOP-92) was 73.1 µM (inactive) and the GI50 (HT-29) was 43.5 µM (inactive). For the same molecule, the GI50 (Hs-578T) was 36.6 µM (inactive), the GI50 (IGROV-1) was 12.7 µM (inactive) and the GI50 (K562) was 53 µM (inactive). For the same molecule, the GI50 (KM12) was 33.3 µM (inactive), the GI50 (LOX IMVI) was 43.9 µM (inactive) and the GI50 (M14) was 81.3 µM (inactive). For the same molecule, the GI50 (MCF7) was 0.0873 µM (active), the GI50 (MDA-MB-231) was 34.5 µM (inactive) and the GI50 (MDA-MB-435) was 24.2 µM (inactive). The GI50 (MDA-N) was 16.3 µM (inactive), the GI50 (MOLT-4) was > 100 µM (inactive) and the GI50 (Malme-3M) was 25.3 µM (inactive). For the same molecule, the GI50 (NCI-H23) was 52.4 µM (inactive), the GI50 (NCI-H460) was 29.6 µM (inactive) and the GI50 (NCI-H522) was 17.3 µM (inactive). For the same molecule, the GI50 (NCI/ADR-RES) was 43.3 µM (inactive), the GI50 (OVCAR-3) was 51.9 µM (inactive) and the GI50 (OVCAR-8) was 33.1 µM (inactive). For the same molecule, the GI50 (PC-3) was 92.5 µM (inactive), the GI50 (RPMI-8226) was 79.4 µM (inactive) and the GI50 (RXF 393) was 17.7 µM (inactive). For the same molecule, the GI50 (SF-268) was 39.7 µM (inactive), the GI50 (SF-539) was 28.4 µM (inactive) and the GI50 (SK-MEL-28) was 38.5 µM (inactive). The GI50 (SK-MEL-2) was 25.6 µM (inactive), the GI50 (SK-MEL-5) was 71 µM (inactive) and the GI50 (SK-OV-3) was 27.9 µM (inactive). The GI50 (SN12C) was 74.3 µM (inactive), the GI50 (SNB-19) was 33.9 µM (inactive) and the GI50 (SNB-75) was 26.5 µM (inactive). The GI50 (SR) was 13.2 µM (inactive), the GI50 (SW-620) was 47 µM (inactive) and the GI50 (T47D) was 16.7 µM (inactive). The GI50 (TK-10) was 19.1 µM (inactive), the GI50 (U-251) was 28.6 µM (inactive) and the GI50 (UACC-257) was 89.5 µM (inactive). For the same molecule, the GI50 (UACC-62) was 53.1 µM (inactive) and the GI50 (UO-31) was 45.6 µM (inactive).
`Cc1cc(C)c2c(=O)n(CN3CCN(c4ccccc4)CC3)sc2n1` was tested, and the GI50 (786-0) was 16.8 µM (inactive), the GI50 (A498) was > 100 µM (inactive) and the GI50 (A549) was 33.8 µM (inactive). The GI50 (ACHN) was 20.1 µM (inactive), the GI50 (BT-549) was 63.2 µM (inactive) and the GI50 (CAKI-1) was 21 µM (inactive). For the same molecule, the GI50 (CCRF-CEM) was 9.59 µM (inactive), the GI50 (COLO 205) was 19.5 µM (inactive) and the GI50 (DU-145) was 22.2 µM (inactive). The GI50 (EKVX) was 29.8 µM (inactive), the GI50 (HCC 2998) was 71.3 µM (inactive) and the GI50 (HCT-116) was 17.7 µM (inactive). For the same molecule, the GI50 (HCT-15) was 22.5 µM, the GI50 (HL-60) was 9.71 µM (inactive) and the GI50 (HOP-62) was 34.1 µM (inactive). For the same molecule, the GI50 (HOP-92) was > 100 µM (inactive), the GI50 (HT-29) was 18.7 µM (inactive) and the GI50 (Hs-578T) was 70.1 µM (inactive). The GI50 (IGROV-1) was > 100 µM (inactive), the GI50 (K562) was 30 µM (inactive) and the GI50 (KM12) was > 100 µM (inactive). The GI50 (LOX IMVI) was 20.7 µM (inactive), the GI50 (M14) was 24.5 µM (inactive) and the GI50 (MCF7) was 29.7 µM (inactive). For the same molecule, the GI50 (MDA-MB-231) was 20.4 µM (inactive), the GI50 (MDA-MB-435) was 37.8 µM (inactive) and the GI50 (MDA-N) was 23.7 µM (inactive). The GI50 (MOLT-4) was 20.1 µM (inactive), the GI50 (Malme-3M) was 37.2 µM (inactive) and the GI50 (NCI-H226) was > 100 µM (inactive). For the same molecule, the GI50 (NCI-H23) was 29.2 µM (inactive), the GI50 (NCI-H460) was 67.9 µM (inactive) and the GI50 (NCI-H522) was 14.4 µM (inactive). For the same molecule, the GI50 (NCI/ADR-RES) was 24.2 µM (inactive), the GI50 (OVCAR-3) was 36.6 µM (inactive) and the GI50 (OVCAR-4) was 54 µM (inactive). For the same molecule, the GI50 (OVCAR-5) was 27.7 µM (inactive), the GI50 (OVCAR-8) was 35.4 µM (inactive) and the GI50 (PC-3) was 19.4 µM (inactive). The GI50 (RXF 393) was 12.6 µM (inactive), the GI50 (SF-268) was > 100 µM (inactive) and the GI50 (SF-295) was > 100 µM (inactive). The GI50 (SF-539) was 18.6 µM (inactive), the GI50 (SK-MEL-28) was 36.6 µM (inactive) and the GI50 (SK-MEL-2) was 17.2 µM (inactive). For the same molecule, the GI50 (SK-MEL-5) was 28.3 µM (inactive), the GI50 (SK-OV-3) was > 100 µM (inactive) and the GI50 (SN12C) was 27 µM (inactive). The GI50 (SNB-19) was > 100 µM (inactive), the GI50 (SNB-75) was 15.8 µM (inactive) and the GI50 (SW-620) was 29.2 µM (inactive). The GI50 (T47D) was 15 µM (inactive), the GI50 (TK-10) was 49.5 µM (inactive) and the GI50 (U-251) was 23.4 µM (inactive). For the same molecule, the GI50 (UACC-257) was 46.6 µM (inactive), the GI50 (UACC-62) was 53.2 µM (inactive) and the GI50 (UO-31) was 21.6 µM (inactive).
